In brackets after ≈: the same amount, converted by molar mass.
Tests used:
[1] = system: E. faecalis 29212; assay: MIC, agar incorporation method; format: cell-based, Enterococcus faecalis; conditions: E. faecalis 29212; agar incorporation
Text: (§1) The compounds of the invention display antibacterial activity when tested by the agar incorporation method. The following minimum inhibitory concentrations (μg/ml) were obtained for representative compounds of the invention which are given below in the following tables.
(§2) • 1) S.aureus ATCC 25923—Staphylococus aureus ATCC 25923 • 2) MRSA 15187—Methicillin Resistant Staphylococcus aureus • 3) Ent. faecalis ATCC 29212—Enterococcus faecalis ATCC 29212 • 4) Ent. faecium 6A—Enterococcus faecium 6A Van®, Cipro® • 5) Strep. pne. ATCC 6303—Streptococcus pneumoniae ATCC 6303 • 6) Strep. pyog. ATCC 19615—Streptococcus pyogenes • 7) S. epidermidis—Staphylococcus epidermidis ATCC 12228
(§3) Briefly, the compounds were dissolved in DMSO and doubling dilution of the compounds were incorporated into Meuller Hilton agar before solidification. Inoculum was prepared by suspending 4 to 5 colonies into 5 ml of normal saline solution and adjusting the turbidity to 0.5 Macfarland turbidity standard tables (1.5×10^8 CFU/ml), after appropriate dilutions, 10^4 CFU/spot was transfered into the surface of dried plate and incubated for 18 hours (24 hours for MRSN studies). The concentration showing no growth of the inoculated culture was recorded as the MIC. Appropriate ATCC standard strains were simultaneously tested and result recorded only when the MIC's against standard antibiotics were within the acceptable range.

[2] = system: S. pyogenes 19615; assay: MIC, agar incorporation method; format: cell-based, Streptococcus pyogenes; conditions: S. pyogenes 19615; agar incorporation
Text: as §1, §2, §3

[3] = system: S. pneum AB 34; assay: MIC, agar incorporation method; format: cell-based, Streptococcus pneumoniae; conditions: S. pneum AB 34; agar incorporation
Description: as §1, §3

[4] = system: S. pneum 6303; assay: MIC, agar incorporation method; format: cell-based, Streptococcus pneumoniae; conditions: S. pneum 6303; agar incorporation
Text: as §1, §2, §3

[5] = system: MRSA 15187; assay: MIC, agar incorporation method; format: cell-based, Staphylococcus aureus; conditions: MRSA 15187; agar incorporation
Text: as §1, §2, §3

[6] = system: S. aureus 25923; assay: MIC, agar incorporation method; format: cell-based, Staphylococcus aureus; conditions: S. aureus 25923; agar incorporation
Text: as §1, §2, §3

[7] = system: VRE 6A; assay: MIC, agar incorporation method; format: cell-based, Enterococcus faecium; conditions: VRE 6A; agar incorporation
Text: as §1, §2, §3

[8] = system: MRSA 562; assay: MIC, agar incorporation method; format: cell-based, Staphylococcus aureus; conditions: MRSA 562; agar incorporation; Table 1
Description: as §1, §3

[9] = system: MRSA 33; assay: MIC, agar incorporation method; format: cell-based, Staphylococcus aureus; conditions: MRSA 33; agar incorporation
Description: as §1, §3

[10] = system: S. aureus; assay: Summary of in vitro activity (MIC) against S. aureus; format: cell-based, Staphylococcus aureus; conditions: S. aureus
Description: as §1, §3

[11] = system: G+ve; assay: Summary of in vitro activity (MIC) against G+ve bacteria; format: cell-based; conditions: for MIC50 / MIC90: G+ve, Number 49; for Geometric Mean of in vitro activity (MIC): Gram +ve
Description: as §1, §3

[12] = system: S. pneumoniae; assay: Summary of in vitro activity (MIC) against S. pneumoniae; format: cell-based, Streptococcus pneumoniae; conditions: S. pneumoniae; for MIC50 / MIC90: Number 19
Description: as §1, §3

[13] = system: E. faecalis; assay: Summary of in vitro activity (MIC) against E. faecalis; format: cell-based, Enterococcus faecalis; conditions: E. faecalis
Description: as §1, §3

SMILES | MIC [1] [µg/mL] | MIC [2] [µg/mL] | MIC [3] [µg/mL] | MIC [4] [µg/mL] | MIC [5] [µg/mL] | MIC [6] [µg/mL] | MIC [7] [µg/mL] | MIC [8] [µg/mL] | MIC [9] [µg/mL] | further results
CC(=O)NC[C@H]1CN(c2ccc(N3CCN(Cc4cccs4)CC3)c(F)c2)C(=O)O1 [Compound No. 12, (S)-N-[[3-[3-Fluoro-4-[N-1[4-(2-thienylmethyl)]piperazinyl]-phenyl]-2-oxo-5-oxazolidinyl]methyl]acetamide] | 8 (≈ 18.5 µM) | 4 (≈ 9.25 µM) | 8 (≈ 18.5 µM) | 8 (≈ 18.5 µM) | 8 (≈ 18.5 µM) | 8 (≈ 18.5 µM) | 8 (≈ 18.5 µM) | 8 (≈ 18.5 µM) | 8 (≈ 18.5 µM) | –
CC(=O)NC[C@H]1CN(c2ccc(N3CCN(Cc4cc(Br)cs4)CC3)c(F)c2)C(=O)O1 [Compound No. 14, (S)-N-[[3-[3-Fluoro-4-[N-1[4-{2-thienyl(4-bromo)methyl}]-piperazinyl]phenyl]-2-oxo-5-oxazolidinyl]methyl]acetamide] | 2 (≈ 3.91 µM) | 2 (≈ 3.91 µM) | 4 (≈ 7.82 µM) | 4 (≈ 7.82 µM) | 2 (≈ 3.91 µM) | 4 (≈ 7.82 µM) | 2 (≈ 3.91 µM) | 2 (≈ 3.91 µM) | 2 (≈ 3.91 µM) | –
CC(=O)NC[C@H]1CN(c2ccc(N3CCN(Cc4cccn4C)CC3)c(F)c2)C(=O)O1 [Compound No. 22, (S)-N[[3-[3-Fluoro-4-[N-1[4-{2-pyrrole(1-methyl)methyl}]-piperazinyl]phenyl]2-oxo-5-oxazolidinyl]methyl]acetamide] | 8 (≈ 18.6 µM) | 1 (≈ 2.33 µM) | 1 (≈ 2.33 µM) | 1 (≈ 2.33 µM) | 8 (≈ 18.6 µM) | 2 (≈ 4.66 µM) | 8 (≈ 18.6 µM) | 4 (≈ 9.31 µM) | 8 (≈ 18.6 µM) | –
CC(=O)NC[C@H]1CN(c2ccc(N3CCN(Cc4ccc(Br)s4)CC3)c(F)c2)C(=O)O1 [Compound No. 27] | 2 (≈ 3.91 µM) | 1 (≈ 1.96 µM) | 0.5 (≈ 0.978 µM) | 2 (≈ 3.91 µM) | 2 (≈ 3.91 µM) | 2 (≈ 3.91 µM) | 4 (≈ 7.82 µM) | 2 (≈ 3.91 µM) | 2 (≈ 3.91 µM) | –
CC(=O)NC[C@H]1CN(c2ccc(N3C[C@@H]4[C@H](C3)[C@H]4N(C)Cc3ccc([N+](=O)[O-])s3)c(F)c2)C(=O)O1 [Compound No. 34, (S)-N-[[3-[3-Fluoro[4-[3-(1α,5α,6α)-6-[N-(5-nitro-2-thienyl-methyl)-N-methyl]amino]-3-azabicyclo-[3.1.0]hexane]phenyl]-2-oxo-5-oxazolidinyl]methyl]acetamide] | 1 (≈ 1.99 µM) | 2 (≈ 3.97 µM) | 4 (≈ 7.94 µM) | 4 (≈ 7.94 µM) | 1 (≈ 1.99 µM) | 1 (≈ 1.99 µM) | 1 (≈ 1.99 µM) | 1 (≈ 1.99 µM) | 1 (≈ 1.99 µM) | –
CC(=O)NC[C@H]1CN(c2ccc(N3C[C@@H]4[C@@H](CN(C)C(=O)Cc5cccs5)[C@@H]4C3)c(F)c2)C(=O)O1 [Compound No. 38, (S)-N-[[3-[3-Fluoro[4-[3-(1α,5α,6α)-6-[N-(2-thiopheneacetyl)-N-methyl]aminomethyl]-3-azabicyclo-[3.1.0]hexane]phenyl]-2-oxo-5-oxazolidinyl]methyl]acetamide] | 4 (≈ 7.99 µM) | 1 (≈ 2 µM) | 1 (≈ 2 µM) | 1 (≈ 2 µM) | 4 (≈ 7.99 µM) | 4 (≈ 7.99 µM) | 4 (≈ 7.99 µM) | 4 (≈ 7.99 µM) | 4 (≈ 7.99 µM) | –
CC(=O)NC[C@H]1CN(c2ccc(N3C[C@@H]4[C@@H](CN(C)Cc5ccc([N+](=O)[O-])s5)[C@@H]4C3)c(F)c2)C(=O)O1 [Compound No. 39, (S)-N-[[3-[3-Fluorol[4-[3-(1α,5α,6α)-6-[N-(5-nitro-2-thienyl-methyl)-N-methyl]aminomethyl]-3-azabicyclo-[3.1.0]hexane]phenyl]-2-oxo-5-oxazolidinyl]methyl]acetamide] | 2 (≈ 3.86 µM) | 0.5 (≈ 0.966 µM) | 0.5 (≈ 0.966 µM) | 0.5 (≈ 0.966 µM) | 8 (≈ 15.5 µM) | 8 (≈ 15.5 µM) | 8 (≈ 15.5 µM) | 8 (≈ 15.5 µM) | 4 (≈ 7.73 µM) | –
CC(=O)NC[C@H]1CN(c2ccc(N3CC4C(CN(C)Cc5ccc([N+](=O)[O-])o5)C4C3)c(F)c2)C(=O)O1 (stereo partly drawn) [Compound No. 40, (S)-N-[[3-[3-Fluoro[4-[3-(1α,5α,6α)-6-[N-(5-nitro-2-furylmethyl)-N-methyl]aminomethyl]-3-azabicyclo-[3.1.0]hexane]phenyl]-2-oxo-5-oxazolidinyl]methyl]acetamide] | 2 (≈ 3.99 µM) | 0.125 (≈ 0.249 µM) | 2 (≈ 3.99 µM) | – | 2 (≈ 3.99 µM) | 2 (≈ 3.99 µM) | 4 (≈ 7.98 µM) | 1 (≈ 1.99 µM) | 2 (≈ 3.99 µM) | Geometric Mean of in vitro activity (MIC) [10]: 1.83 µg/mL; MIC50 ([10]; Number 8): 2 µg/mL (≈ 3.99 µM); MIC90 ([10]; Number 8): 4 µg/mL (≈ 7.98 µM); MIC50 [11]: 1 µg/mL (≈ 1.99 µM); MIC90 [11]: 2 µg/mL (≈ 3.99 µM); Geometric Mean of in vitro activity (MIC) [11]: 0.93 µg/mL; Geometric Mean of in vitro activity (MIC) [12]: 0.71 µg/mL; MIC50 [12]: 1 µg/mL (≈ 1.99 µM); MIC90 [12]: 1 µg/mL (≈ 1.99 µM); Geometric Mean of in vitro activity (MIC) [13]: 2.38 µg/mL; MIC50 ([13]; Number 7): 2 µg/mL (≈ 3.99 µM); MIC90 ([13]; Number 7): 4 µg/mL (≈ 7.98 µM)
CC(=O)NC[C@H]1CN(c2ccc(N3CCN(Cc4ccc(C=NN)o4)CC3)c(F)c2)C(=O)O1 [Compound No. 62, (S)-N-[[3-[3-Fluoro-4[N-1-[4-{2-furyl-(5-hydrazone)-methyl}]-piperazinyl]-phenyl]-2-oxo-5-oxazolidinyl]-methyl]acetamide] | 8 (≈ 17.4 µM) | 8 (≈ 17.4 µM) | 8 (≈ 17.4 µM) | 8 (≈ 17.4 µM) | 2 (≈ 4.36 µM) | 2 (≈ 4.36 µM) | 8 (≈ 17.4 µM) | 1 (≈ 2.18 µM) | 2 (≈ 4.36 µM) | –
CC(=O)NC[C@H]1CN(c2ccc(N3CCN(Cc4ccc(C5OCCCO5)o4)CC3)c(F)c2)C(=O)O1 [Compound No. 66] | 16 (≈ 31.8 µM) | 8 (≈ 15.9 µM) | 8 (≈ 15.9 µM) | 8 (≈ 15.9 µM) | 2 (≈ 3.98 µM) | 2 (≈ 3.98 µM) | 16 (≈ 31.8 µM) | 2 (≈ 3.98 µM) | 2 (≈ 3.98 µM) | –
CC1(C)S[C@@H]2[C@H](NC(=O)Cc3ccccc3)C(=O)N2[C@H]1C(=O)O [Penicillin G, reference compound] | – | – | – | – | – | – | – | – | – | MIC50 [11]: 4 µg/mL (≈ 12 µM); MIC90 [11]: 32 µg/mL (≈ 95.7 µM); Geometric Mean of in vitro activity (MIC) [11]: 0.76 µg/mL; Geometric Mean of in vitro activity (MIC) [12]: 2.16 µg/mL; MIC50 [12]: 4 µg/mL (≈ 12 µM); MIC90 [12]: 32 µg/mL (≈ 95.7 µM)

Reference: patent US6956040B2, “Oxazolidinone piperazinyl derivatives as potential antimicrobials” (Ranbaxy Laboratories Limited, priority 2001, dated 2005)
